Reference: patent US6479046B2, “Attractants and repellants for colorado potato beetle” (priority 2000, dated 2002)

Tested on: Colorado potato beetle (CPB) adults
Assay: open Y-track olfactometer dual choice bioassay, adult beetles
Format: in vivo, Leptinotarsa decemlineata
Settings: not given
From the text: Insects: Adult Colorado potato beetles (CPB) were obtained from a laboratory colony which was annually infused with feral insects. CPB were maintained on potato, S. tuberosum cultivar Kennebeck, for both larval and adult stages. Upon emergence, adults were sexed; individual insects were kept in plastic containers with fresh potato foliage and water until use six to 12 days post emergence. Prior to testing, CPB were starved for two to three hours. Experimental insects were used only once.
Odorous blends tested are described in Table 3.
Plant stimuli consisted of 4.8 g of leaves from mature plants that were mechanically-damaged using scissors to make incisions ca. 1 cm in length at ca. 1 cm intervals around the circumference of leaves. Foliage used in the study were, potato, S. tuberosum cultivar Kennebeck (Solanaceae); tomato, Lycopersicon esculentum Mill cultivar Pik Red (Solanaceae); and soybean, Glycines maxcultivar Williams (Leguminaceae).
Experimental protocol: Chemical blends and plant foliage were tested for behavioral activity in an open Y-track olfactometer modified after Visser et al. (Visser, J. H., et al., Proceedings of the Section Experimental and Applied Entomology of the Netherlands Entomological Society Amsterdam, 9: 41-46 (1998); and described in detail by Dickens (Dickens, J. C., Agricultural and Forest Entomology, 1: 47-54 (1999)). In brief, odorous stimuli emanating from synthetic blends on filter paper discs (2.5 cm dia., Whatman™ #1 filter paper) or mechanically-damaged plant foliage in Ehrlenmeyer flasks were delivered to either side of the device. For each blend, a total amount of 25 μl of neat chemicals were diluted in 1 ml of mineral oil (25 μg total chemicals/μl mineral oil). […]
Statistical analysesLaboratory bioassays were assessed for significant differences by the hypothesis on binomial proportions based on the standard normal approximation (Brase, C. H., et al., Understanding Statistics, D. C. Heath and Co., Lexington, Mass., XIV +489 pp. (1983)).

Row | Molecule | behavioral response of CPB to treatment versus control (in words)
1 | CC/C=C\CCOC(C)=O [XIV, (Z)-3-hexenyl acetate] | unattractive
2 | COC(=O)c1ccccc1O [XVI, methyl salicylate] | unattractive
3 | C=CC(C)(O)CCC=C(C)C (single isomer, unassigned; (+)) [XV, (+)-linalool] | unattractive

Tested on: CPB
Assay: not given
Settings: Schütz et al. (1997); cited from earlier work

Row | Molecule | attraction of CPB to leaves sprayed with paraffin solutions (in words)
4 | C=CC(=C)CCC=C(C)C [β-myrcene] | reduced attraction
5 | C=C1CC/C=C(\C)CC[C@@H]2[C@@H]1CC2(C)C [β-caryophyllene] | attractive
6 | C=CC(C)(O)CCC=C(C)C (stereo not shown) [linalool] | attractive
7 | benzene methanol | attractive
8 | CCCCC/C=C\CCO [(Z)-3-nonen-1-ol] | reduced attraction
9 | CCCCCCCCC=O [nonanal] | reduced attraction
10 | OCCc1ccccc1 [2-benzene-ethanol] | attractive
